In brackets after ≈: the same amount, converted by molar mass. Activity calls are given as the source filed them. No cut-off for these calls is given here.
Key:
Rattus norvegicus = test: Pro-cognitive activity in MK-801-induced memory impaired Wistar rat assessed as recognition of novel location by measuring discrimination index at 0.3 to 3 mg/kg, ip preincubated for 30 mins followed by MK-801 addition for 30 mins prior to T1 phase by novel object location test; format: functional, organism-based; settings: dose 0.3-3 mg/kg, time 60.0 min
Mus musculus [1] = test: Anxiolytic-like activity in Swiss albino mouse at 1.25 to 2.5 mg/kg, ip by four plate test; format: functional, organism-based; settings: dose 1.25-2.5 mg/kg
Mus musculus [2] = test: Antidepressant activity in Swiss albino mouse assessed as reduction in immobility time at 2.5 mg/kg, ip measured for last 4 mins of 6 mins test by forced swim test; format: functional; design: scale not given: the % may be the effect or the level left; settings: 0.1 h
[3] = molecular target: T1, cAMP and cAMP-inhibited cGMP 3',5'-cyclic phosphodiesterase 10A (Homo sapiens, UniProt Q9Y233); test: Inhibition of PDE10A (unknown origin) at 10 uM preincubated for 20 mins followed by substrate addition and measured after 1 hr by PEDlight AMP detection reagent based luminescence assay relative to control; settings: time 80.0 min
[4] = molecular target: T1, cAMP and cAMP-inhibited cGMP 3',5'-cyclic phosphodiesterase 10A; test: Inhibition of PDE10A (unknown origin) preincubated for 20 mins followed by substrate addition and measured after 1 hr by PEDlight AMP detection reagent based luminescence assay
[5] = molecular target: 5-hydroxytryptamine receptor 7 (Homo sapiens, UniProt P34969); test: Displacement of [3H]-5-CT from human 5-HT7 receptor expressed in CHO-K1 cells membrane by scintillation counter analysis; format: cell membranes
[6] = molecular target: T2, 5-hydroxytryptamine receptor 1A (Homo sapiens, UniProt P08908); test: Displacement of [3H]-[…] from human 5-HT1A receptor expressed in CHO-K1 cells membrane by scintillation counter analysis; format: cell membranes
T2 sequence (P08908 whole entry): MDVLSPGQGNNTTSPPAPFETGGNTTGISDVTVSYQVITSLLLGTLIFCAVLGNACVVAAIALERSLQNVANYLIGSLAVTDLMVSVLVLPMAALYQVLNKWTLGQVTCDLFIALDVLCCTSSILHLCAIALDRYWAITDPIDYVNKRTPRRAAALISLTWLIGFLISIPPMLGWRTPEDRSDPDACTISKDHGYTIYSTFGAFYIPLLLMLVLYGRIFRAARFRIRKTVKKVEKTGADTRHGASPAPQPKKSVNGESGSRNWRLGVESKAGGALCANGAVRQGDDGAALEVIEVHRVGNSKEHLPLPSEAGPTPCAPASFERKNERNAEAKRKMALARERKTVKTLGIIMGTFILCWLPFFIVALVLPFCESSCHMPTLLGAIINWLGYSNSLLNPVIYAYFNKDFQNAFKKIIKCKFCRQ

[7] = Aqueous solubility of compound in PBS buffer at pH 7.4 by UV absorbance based analysis; format: physicochemical
[8] = Permeability of the compound across apical to basolateral side in human Caco-2 cells at pH 7.4; format: ADME, cell-based; settings: Caco-2, pH 7.4, read-out: permeability
[9] = Permeability of the compound across apical to basolateral side in human Caco-2 cells at pH 6.5; format: ADME, cell-based; settings: Caco-2, pH 6.5, read-out: permeability
D(2) dopamine receptor = D(2) dopamine receptor (Homo sapiens, UniProt P14416); test: Binding affinity to dopamine D2 receptor (unknown origin)
[10] = AUC(0 to t) in mouse plasma at 1.25 mg/kg, ip measured up to 480 mins by LC/ESI-MS/MS analysis; format: ADME, organism-based; design: dose 1.25 mg/kg, time < 480 min, route ip; settings: in vivo, 8 h
[11] = Cmax in mouse frontal cortex at 1.25 mg/kg, ip by LC/ESI-MS/MS analysis; format: ADME, organism-based; design: dose 1.25 mg/kg, route ip
[12] = Tmax in mouse striatum at 1.25 mg/kg, ip by LC/ESI-MS/MS analysis; format: ADME, organism-based
[13] = Cmax in mouse plasma at 1.25 mg/kg, ip measured up to 480 mins by LC/ESI-MS/MS analysis; format: ADME, organism-based; design: time < 480 min, dose 1.25 mg/kg, route ip
[14] = Tmax in mouse plasma at 1.25 mg/kg, ip measured up to 480 mins by LC/ESI-MS/MS analysis; format: ADME, organism-based
[15] = AUC(0 to t) in mouse striatum at 1.25 mg/kg, ip by LC/ESI-MS/MS analysis; format: ADME, organism-based; design: dose 1.25 mg/kg, route ip
[16] = molecular target: 5-hydroxytryptamine receptor 2A (Homo sapiens, UniProt P28223); test: Binding affinity to 5HT-2A receptor (unknown origin)
[17] = Tmax in mouse hippocampus at 1.25 mg/kg, ip by LC/ESI-MS/MS analysis; format: ADME, organism-based
[18] = AUC(0 to t) in mouse hippocampus at 1.25 mg/kg, ip by LC/ESI-MS/MS analysis; format: ADME, organism-based; design: dose 1.25 mg/kg, route ip
[19] = Apparent volume of distribution in mouse plasma at 1.25 mg/kg, ip measured up to 480 mins by LC/ESI-MS/MS analysis; format: ADME, organism-based
[20] = Tmax in mouse frontal cortex at 1.25 mg/kg, ip by LC/ESI-MS/MS analysis; format: ADME, organism-based
[21] = Metabolic stability in human liver microsomes assessed as intrinsic clearance
[22] = molecular target: T3, Adrenergic receptor alpha-1 (Homo sapiens, UniProt P35348+P25100+P35368); test: Binding affinity to adrenergic alpha 1 receptor (unknown origin); format: protein assay
T3 sequence (P35348 whole entry): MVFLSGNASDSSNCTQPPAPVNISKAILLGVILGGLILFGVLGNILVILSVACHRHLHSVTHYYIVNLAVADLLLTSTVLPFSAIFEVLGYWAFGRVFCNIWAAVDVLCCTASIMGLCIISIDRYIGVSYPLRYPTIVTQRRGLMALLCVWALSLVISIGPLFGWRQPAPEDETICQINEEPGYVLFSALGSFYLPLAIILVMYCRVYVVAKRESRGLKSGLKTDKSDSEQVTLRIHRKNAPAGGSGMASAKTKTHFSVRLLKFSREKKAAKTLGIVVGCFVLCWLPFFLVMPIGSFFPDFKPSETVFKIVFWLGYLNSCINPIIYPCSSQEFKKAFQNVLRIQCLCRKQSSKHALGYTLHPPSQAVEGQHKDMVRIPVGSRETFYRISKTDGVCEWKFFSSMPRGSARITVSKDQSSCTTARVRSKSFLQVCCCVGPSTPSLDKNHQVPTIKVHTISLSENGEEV
T3 sequence (P25100 whole entry): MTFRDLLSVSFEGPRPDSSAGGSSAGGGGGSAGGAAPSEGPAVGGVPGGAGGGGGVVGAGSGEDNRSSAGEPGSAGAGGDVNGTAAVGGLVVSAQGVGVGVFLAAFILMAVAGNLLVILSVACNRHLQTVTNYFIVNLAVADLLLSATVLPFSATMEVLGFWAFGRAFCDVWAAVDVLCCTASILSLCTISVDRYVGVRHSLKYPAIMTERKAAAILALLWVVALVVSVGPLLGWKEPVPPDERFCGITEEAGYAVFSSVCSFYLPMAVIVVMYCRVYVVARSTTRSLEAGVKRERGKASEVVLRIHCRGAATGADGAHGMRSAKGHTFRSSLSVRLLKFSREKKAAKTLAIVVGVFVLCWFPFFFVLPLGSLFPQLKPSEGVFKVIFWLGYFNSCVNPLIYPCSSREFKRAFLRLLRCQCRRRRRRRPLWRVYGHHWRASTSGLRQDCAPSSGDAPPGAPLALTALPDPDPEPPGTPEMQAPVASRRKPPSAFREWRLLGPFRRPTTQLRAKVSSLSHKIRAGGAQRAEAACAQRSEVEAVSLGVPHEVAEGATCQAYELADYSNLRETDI
T3 sequence (P35368 whole entry): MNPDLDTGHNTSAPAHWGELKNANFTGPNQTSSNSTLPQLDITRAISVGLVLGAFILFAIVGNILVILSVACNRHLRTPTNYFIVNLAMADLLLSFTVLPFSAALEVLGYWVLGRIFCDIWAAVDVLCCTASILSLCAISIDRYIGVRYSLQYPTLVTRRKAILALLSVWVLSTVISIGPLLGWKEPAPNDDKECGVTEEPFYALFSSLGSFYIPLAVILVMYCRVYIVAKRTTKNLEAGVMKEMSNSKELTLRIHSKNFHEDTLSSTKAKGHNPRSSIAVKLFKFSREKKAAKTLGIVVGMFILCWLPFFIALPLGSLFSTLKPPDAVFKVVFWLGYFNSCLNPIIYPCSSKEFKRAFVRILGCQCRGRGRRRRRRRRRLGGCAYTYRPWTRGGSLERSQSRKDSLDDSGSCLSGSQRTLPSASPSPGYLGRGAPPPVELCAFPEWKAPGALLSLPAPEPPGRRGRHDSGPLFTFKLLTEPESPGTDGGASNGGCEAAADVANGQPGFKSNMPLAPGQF

[23] = Cmax in mouse striatum at 1.25 mg/kg, ip by LC/ESI-MS/MS analysis; format: ADME, organism-based; design: dose 1.25 mg/kg, route ip
[24] = AUC(0 to t) in mouse frontal cortex at 1.25 mg/kg, ip by LC/ESI-MS/MS analysis; format: ADME, organism-based; design: dose 1.25 mg/kg, route ip
[25] = Cmax in mouse hippocampus at 1.25 mg/kg, ip by LC/ESI-MS/MS analysis; format: ADME, organism-based; design: dose 1.25 mg/kg, route ip

SMILES | inhibition [3] [%] | Ki [5] [µM] | Ki [6] [µM] | other results
COc1cc2ncnc(N3CC[C@@H](Oc4cnc5ccccc5n4)C3)c2cc1OC | – | – | – | Activity (Rattus norvegicus): Active; Activity (Mus musculus [1]): Active; Activity (Mus musculus [2]): 30%
O=c1[nH]c2cccc(N3CCN(Cc4nc5ccccc5[nH]4)CC3)c2[nH]1 | 23 | > 1 | > 1 | IC50 [4]: 4.07 µM
COc1cc2ncnc(N3CCC(CN4CCN(c5ccccc5OC)CC4)C3)c2cc1OC (stereo unspecified) | 16 | 0.0562 | 0.00162 | –
c1cc(N2CCN(Cc3cnc4ccccc4n3)CC2)c2[nH]ncc2c1 | – | > 1 | 0.0871 | –
COc1cc2ncnc(N3CCC(CN4CCN(c5cccc(Cl)c5Cl)CC4)C3)c2cc1OC (stereo unspecified) | 6 | 0.347 | 0.0107 | –
c1cc(N2CCN(c3cccc4cn[nH]c34)CC2)c2ncncc2c1 | 3 | > 1 | > 1 | –
COCCc1ccc(OCC(O)CNC(C)C)cc1 (stereo unspecified) [METOPROLOL] | – | – | – | solubility [7]: 200 µM (≈ 53.5 µg/mL)
COc1cc2ncnc(N3CCN(Cc4nc5ccccc5[nH]4)CC3)c2cc1OC | 3 | > 1 | > 1 | –
c1cc(N2CCN(Cc3nc4ccccc4[nH]3)CC2)c2[nH]ncc2c1 | – | > 1 | > 1 | –
CNC(=C[N+](=O)[O-])NCCSCc1ccc(CN(C)C)o1 [RANITIDINE] | – | – | – | Papp A→B [8]: 0.9 ×10⁻⁶ cm/s; Papp A→B [9]: 0.3 ×10⁻⁶ cm/s
COc1cc2ncnc(N3CCC(CN4CCN(c5ccccn5)CC4)C3)c2cc1OC (stereo unspecified) | 11 | 0.282 | 0.00813 | –
COc1cccc(N2CCN(CC3CCN(c4ncnc5cc(OC)c(OC)cc45)C3)CC2)c1 (stereo unspecified) | – | 0.234 | – | Ki (D(2) dopamine receptor): > 1 µM; AUCt [10]: 1164 ng·min/mL; Cmax [11]: 210 ng/mL; Tmax [12]: 30 min; Cmax [13]: 13.3 ng/mL; Tmax [14]: 5 min; AUC(0-t) [15]: 438 ng·h/mL; Ki [16]: > 1 µM; Tmax [17]: 30 min; IC50 [4]: 7.08 µM; AUC(0-t) [18]: 906 ng·h/mL; Vd/F [19]: 0.253 L/kg; Tmax [20]: 15 min; microsomal CLint [21]: 292 µL/min/mg; pKi [22]: 6.58; Cmax [23]: 303 ng/mL; AUC(0-t) [24]: 726 ng·h/mL; Cmax [25]: 436 ng/mL
COc1cc2ncnc(N3CCN(Cc4ccc5ccccc5n4)CC3)c2cc1OC | 8 | > 1 | > 1 | –
